From PubChem BioAssay (NCI)
Several values for one entry are separate records, joined by “and”; a condition that tells them apart may be missing. Identical values can stand only once.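 Dose response: 5 concentrations. Exposure: 48 h. Format: 96-well plates. Endpoint: linear interpolation; highest concentration if not reached. GI50 is the concentration that inhibits growth by half. TGI marks complete inhibition of growth.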

Tested on: MDA-MB-468 breast
Experiment: growth of human tumour cells (NCI), 48 h

Structure (SMILES)	GI50	TGI
CCc1ccc(OCc2ccccc2C(=O)Nc2ccc3nc(C)cc(N)c3c2)cc1	1260 nM	2800 nM
N#Cc1c(-c2ccc(Cl)cc2)csc1NC(=O)Nc1cccc(C(F)(F)F)c1	2180 nM	8270 nM
NC1(C(=O)O)CSSC1	2100 nM	7890 nM
Cc1ccc(S(=O)c2ccc([N+](=O)[O-])c3nonc23)cc1 (stereo not drawn)	1750 nM	3650 nM
Cc1cc([C@H](C)Nc2nccc(N3C(=O)OC[C@@H]3[C@H](C)F)n2)ncc1-c1ccnc(C(F)(F)F)c1	9500 nM	79600 nM
O=C1c2c(O)ccc(O)c2C(=O)c2c(NCCNCCO)ccc(NCCNCCO)c21	83.5 nM	346 nM
Oc1cccc(-c2nc(N3CCOCC3)c3oc4ncccc4c3n2)c1	576 nM and 375 nM	2370 nM and 2150 nM
CN(C)CCCNc1c2ccccc2nc2c1oc1ccc(Cl)cc12	2760 nM	11000 nM
NCCNc1nc2ccccc2c2c(=O)c3cc(F)cc(Cl)c3sc12	1730 nM	3440 nM
Cc1cc2c(-c3nc4ccccn4c3NC34CC5CC(CC(C5)C3)C4)c(O)c(O)cc2c(O)c1-c1c(C)cc2c(-c3nc4ccccn4c3NC34CC5CC(CC(C5)C3)C4)c(O)c(O)cc2c1O	143 nM	1570 nM
COC12C=C/C(=C(/C(=O)OCc3csc(SC)n3)C(=O)CCCCCCCCC3(OC)C=C/C(=C(/C(=O)OCc4cnc(SC)s4)C(=O)CCCCCCCC1)O3)O2 (stereo not drawn)	3560 nM	61300 nM
Cc1cc(C(=O)Nc2cc(Nc3ncccc3-c3ncnc4nc[nH]c34)ccc2F)cc(C(C)(C)C#N)c1	10300 nM	> 100000 nM
CCCCCCCCCCCCNC(=O)[C@H]1CSC(c2ccsc2)N1 (stereo partly drawn)	846 nM	1630 nM
CC(=O)c1c(Nc2ccc(F)c(F)c2F)[nH]c2c(F)cc(F)cc2c1=O	261 nM	789 nM
Oc1ccc(CSc2nnc(-c3ccc(Oc4ccccc4)cc3)n2-c2ccccc2)c2cccnc12	180 nM	6810 nM
COc1cccc(C2CC(=O)Nc3cc4c(cc32)CCC4)c1OC (stereo not drawn)	1830 nM	5450 nM
O=C(Nc1nc2ccc(F)cc2s1)c1cccnc1Nc1ccc(Cl)cc1Cl	786 nM	20200 nM
Cc1nc2cc(Nc3nc(Nc4ccc(F)cc4)nc(-c4ccc(Cl)cc4)n3)ccc2n1Cc1ccccc1	4940 nM	88000 nM
C#CCn1cc(C=C2C(=O)NC(=S)NC2=O)c2cc(Cl)ccc21	2060 nM	5080 nM
COc1ccc(-c2nn3ncccc3c2-c2ccnc(Nc3cccc(C(F)(F)F)c3)n2)cc1	4620 nM	14100 nM
COc1cc(/C=C2\C(=O)Nc3ccc(Br)cc32)cc(OC)c1OC	3290 nM	> 100000 nM
COc1ccc(CNC(=O)c2ccc(-c3cc(-c4nnc(C)o4)ccc3C)cc2)cc1	5140 nM	21400 nM

Structure (SMILES)	GI50	TGI
CCn1c(-c2nonc2N)nc2c(C#CC(C)(C)O)ncc(OC[C@@H]3CCCN3)c21	232 nM	7190 nM
Fc1ccc(-c2cc(-c3cn[nH]c3-c3ccccn3)ccn2)cc1	> 25000 nM	> 25000 nM
COc1ccc(-c2nn(-c3cccc(Cl)c3)cc2/C=C2\C(=N)N(c3ccccc3)N=C2N)cc1	4150 nM	45800 nM
COc1ccccc1-c1nccc(COc2ccccc2C[C@@H](Oc2ncnc3sc(-c4ccc(F)cc4)c(-c4ccc(OCCN5CCN(C)CC5)c(Cl)c4C)c23)C(=O)O)n1	< 10 nM	12.1 nM
N#CC1=C(N)Oc2c(sc3c(Br)cccc23)C1c1ccc(F)cc1 (stereo not drawn)	333 nM	6410 nM
Cc1ccc2c(C(C[N+](=O)[O-])c3ccco3)c(-c3ccccc3)[nH]c2c1 (stereo not drawn)	7260 nM	71200 nM
COc1ccc(-c2conc2-c2ccccc2)cc1	225 nM	> 100000 nM
NC(=O)c1c(NC(=O)c2cccc(C(F)(F)F)c2)sc2c1CCC(=O)C2	348 nM	2900 nM
CN1CCN(CCCOc2ccc3ncnc(Nc4ccc(Oc5cccc(F)c5)c(Cl)c4)c3c2)CC1	1060 nM	2530 nM
CC(=O)Nc1ccc2c(c1)CN1C(=O)c3ccccc3C1=N2	> 100000 nM	> 100000 nM
COc1ccc2nc3cc(Cl)ccc3c(Nc3ccc(O)c(CN4CCCC4)c3)c2c1	1850 nM	3650 nM
Cc1cc(Nc2cc(N3CCN(C)CC3)nc(C#Cc3ccccc3)n2)n[nH]1	1670 nM	6530 nM
COc1ccc(-c2nn(-c3cccc(Cl)c3)cc2-c2cc(-c3cccs3)no2)cc1	2680 nM	12300 nM
O=C1c2cc3c(cc2-c2c1c1cc(F)c(F)cc1c(=O)n2C[C@H](O)CO)OCO3	37.9 nM	206 nM
CCCCCCCCCCCCCCCCCCNC(=O)[C@H]1CSC(c2ccc(F)c(OC)c2)N1 (stereo partly drawn)	1840 nM	> 50000 nM
CC[C@H](C)[C@H](NC(=O)N[C@@H](C)c1ccccc1)C(=O)N(C)[C@H](C[C@@H](OC(C)=O)c1nc(C(=O)N[C@@H](Cc2ccccc2)C[C@H](C)C(=O)OC)cs1)C(C)C	3600 nM	24900 nM
O=C(Nc1cccc(Cl)c1)c1cc(Cl)ccc1O	1750 nM	7230 nM
NC(=O)c1cc(-c2ccc3ncnc(N4CCc5cc(F)c(Cl)cc54)c3c2)cnc1N	397 nM	2040 nM
Cc1ccc(NCCNCC(O)CO)c2c(=O)c3ccccc3sc12 (stereo not drawn)	1390 nM	2860 nM
O=c1c2ccccc2c(=O)c2c1sc1c(=O)c3ccc(O)cc3c(=O)c12	1520 nM	4000 nM
CC(=O)OC1Oc2cc(C)c(C)cc2-c2oc(=O)c(-c3ccccc3)cc21 (stereo not drawn)	796 nM	43900 nM
CCOC(=O)C(=Cc1c(-c2ccccc2)[nH]c2ccccc12)C(=O)OCC	3100 nM	15400 nM
